What was measured:
Human melanocytes = assay: Melanin production assay in melanocytes; format: cell-based; conditions: 6 days
Protocol: Materials and Methods: Human melanocytes from a moderately pigmented donor were purchased from Cascade Biologics (Portland, Oregon). Human dermal fibroblasts were purchased from Cambrex (Rockland, ME). In order to determine the optimal concentrations of the test materials for the whitening experiment, these materials were first examined in a proliferation assay with human dermal fibroblasts. The highest non-interfering concentration was determined for each test material and further 5-fold dilutions were made for use in melanocytes cultures. The following assay was used to the effects of the materials on melanin production. Melanocytes were seeded in the fully-supplemented 254 medium (Cascade) in 96 well plates and test materials were added 24 h later. Cells were grown for 6 days with one growth medium change. At the end of the experiment, cells were lysed with the Cellytic Mammalian Cell Lysis/Extraction Reagent (Sigma, St. Louis, MO) and melanin was solubilized in 2N NaOH. Melanin content was determined spectrophotometrically at 405 nm and standardized to total protein content from the same cultures, using Bradford reagent (Sigma, St. Louis, MO). Kojic acid was used as positive control. Cell cultures were monitored on a Nikon Eclipse inverted microscope.

Mushroom Tyrosinase = assay: Tyrosinase activity, modified Pomerantz method; format: biochemical; conditions: H20 = 100.0
Protocol: Tyrosinase activity was measured by the modified Pomerantz method (Biophys Res Commun, 1964). Mushroom Tyrosinase (Sigma #3212816630) stock enzyme was 5 U/well (25 U/ml). The substrate (I-DOPA, Fisher Scientific, Pittsburgh, PA) stock solution was 20 mM. Working solution was prepared in PBS for each assay. The reaction mixture consisted of 50 μl 20 mM I-DOPA and 10 μl undiluted test sample. Reaction was initiated by adding tyrosinase. Assays were preformed in 96 well flat-bottom microtiter plates (Fisher #0720087) and read at 490 nm after 5, 10, and 20 min.

Row | Compound | Melanin content (% of water control) (Human melanocytes; Dilution Factor 1/25-1/125, H20 = 100%) | Tyrosinase activity, % of water control (Mushroom Tyrosinase; read at 490 nm after 5 min) | Tyrosinase activity, % of water control (Mushroom Tyrosinase; read at 490 nm after 10 min) | Tyrosinase activity, % of water control (Mushroom Tyrosinase; read at 490 nm after 20 min) | activity at 200 µM (Human melanocytes; Melanocyte, 144 h, 200 μM, H20 = 100%, read-out: Melanin Inhibition in Cells)
1 | O=C1O[C@H]([C@@H](O)CO)C(O)=C1O[C@H]1O[C@H](CO)[C@@H](O)[C@H](O)[C@H]1O [Ascorbyl Glucoside, Ascorbyl glucoside] | 75-65.5% | 33.8 | 30.6 | 30.1 | 
2 | O=c1cc(CO)occ1O [Kojic acid] |  | 39.0 | 35.5 | 33.1 | 83%

— patent US12714657B2, “Magnolia extract containing compositions” (MARY KAY INC., priority 2007, dated 2026)
